# Laboratory results: patent US10123981B2, “Methods for treatment of pelvic pain and/or comorbid conditions” (priority 2012, dated 2018)
# Read-outs that look alike come from different tables or passages of the source.
# Key:
# [1] = In vitro release of lidocaine from silicone tube devices (diffusion through wall / apertures); type: physicochemical; details: in vitro in water at about 37° C.; tubes with or without apertures
# Protocol: A study was performed to determine the feasibility of delivering drug through the wall of a drug reservoir via diffusion. […] Some of the devices included an aperture formed through the tube wall, the aperture having a diameter of 150 μm. […] The devices were tested in vitro in water at about 37° C. […] Another study was performed to investigate the feasibility of delivering drug from a device through both a wall of a drug reservoir and from an aperture in the wall of the drug reservoir. Devices were formed form silicone tubes having a length of about 3 cm. […] The devices were tested in vitro in water at about 37° C.
# IC = details: cited from earlier work
Structure (SMILES),release of drug from silicone tube [1],mean pain score (IC; after second instillation),mean pain score (IC; immediately following treatment (prior to treatment 6.0)),duration of effect (IC; single instillation),mean pain score (IC; the next day)
CCN(CC)CC(=O)Nc1c(C)cccc1C [lidocaine base],can be released from a silicone tube without any apertures,,,,
CCN(CC)CC(=O)Nc1c(C)cccc1C [lidocaine],,1.2,1.8,approximately 24 hours,3.7
